pIC50: −log10 of the molar value. Like-named read-outs stand apart in the source and are kept apart here.
Key:
[1] = target: T1, panel of more than 300 wild-type and mutant kinases (313 kinase panel) (Homo sapiens, UniProt P30530); assay: Kinase profiling in a biochemical assay panel (mobility shift assays and ELISA), %-inhibition at 1 μM; selectivity entropy; settings: kinase AXL; 1 μM compound
T1 sequence (P30530 26-894): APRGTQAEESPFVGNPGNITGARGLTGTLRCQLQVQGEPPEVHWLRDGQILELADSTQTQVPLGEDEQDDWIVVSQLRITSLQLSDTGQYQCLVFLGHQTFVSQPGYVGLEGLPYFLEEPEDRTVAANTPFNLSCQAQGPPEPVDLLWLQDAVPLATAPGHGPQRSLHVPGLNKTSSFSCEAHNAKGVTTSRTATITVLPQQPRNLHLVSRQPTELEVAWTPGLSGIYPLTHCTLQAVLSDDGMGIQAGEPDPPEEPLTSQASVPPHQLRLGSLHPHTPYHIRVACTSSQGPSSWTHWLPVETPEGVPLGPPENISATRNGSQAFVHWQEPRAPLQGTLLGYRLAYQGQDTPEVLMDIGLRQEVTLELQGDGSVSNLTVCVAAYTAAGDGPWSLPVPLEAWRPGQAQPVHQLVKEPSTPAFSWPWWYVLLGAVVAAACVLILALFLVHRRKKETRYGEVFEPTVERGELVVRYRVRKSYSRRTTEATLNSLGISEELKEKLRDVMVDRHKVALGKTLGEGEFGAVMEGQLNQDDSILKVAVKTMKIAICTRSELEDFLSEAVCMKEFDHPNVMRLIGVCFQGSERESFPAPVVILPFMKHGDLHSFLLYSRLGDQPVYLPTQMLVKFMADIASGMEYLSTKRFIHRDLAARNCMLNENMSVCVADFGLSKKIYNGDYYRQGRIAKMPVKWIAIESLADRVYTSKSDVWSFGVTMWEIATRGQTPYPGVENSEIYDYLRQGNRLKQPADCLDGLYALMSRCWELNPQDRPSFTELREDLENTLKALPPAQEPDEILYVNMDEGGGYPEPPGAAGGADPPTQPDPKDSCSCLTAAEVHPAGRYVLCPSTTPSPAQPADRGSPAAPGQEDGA

[2] = target: T2, panel of more than 300 wild-type and mutant kinases (313 kinase panel) (Homo sapiens, UniProt P51955); assay: as above; settings: kinase NEK2; 1 μM
T2 sequence (P51955 1-445): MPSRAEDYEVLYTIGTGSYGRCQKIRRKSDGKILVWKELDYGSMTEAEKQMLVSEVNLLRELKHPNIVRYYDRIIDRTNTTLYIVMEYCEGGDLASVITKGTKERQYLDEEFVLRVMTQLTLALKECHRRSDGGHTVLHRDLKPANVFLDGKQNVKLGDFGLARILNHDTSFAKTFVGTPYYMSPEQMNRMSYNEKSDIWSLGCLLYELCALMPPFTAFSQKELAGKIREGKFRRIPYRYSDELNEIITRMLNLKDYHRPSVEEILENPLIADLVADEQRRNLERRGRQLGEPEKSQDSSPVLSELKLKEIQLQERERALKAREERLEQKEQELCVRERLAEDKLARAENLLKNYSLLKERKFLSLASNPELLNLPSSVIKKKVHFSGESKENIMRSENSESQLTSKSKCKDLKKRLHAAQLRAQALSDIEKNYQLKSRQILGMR

[3] = target: panel of more than 300 wild-type and mutant kinases (313 kinase panel) (Homo sapiens, UniProt P11362, V561M); assay: as above; settings: kinase FGFR1(V561M); compound at 1 μM
[4] = target: panel of more than 300 wild-type and mutant kinases (313 kinase panel) (Homo sapiens, UniProt P00533, L858R); assay: as above; settings: kinase EGFR(L858R); compound at 1 μM
[5] = target: panel of more than 300 wild-type and mutant kinases (313 kinase panel) (Homo sapiens, UniProt Q9NQU5); assay: as above; settings: kinase PAK6; 1 μM
[6] = target: panel of more than 300 wild-type and mutant kinases (313 kinase panel) (Homo sapiens, UniProt P22694); assay: as above
[7] = target: panel of more than 300 wild-type and mutant kinases (313 kinase panel) (Homo sapiens, UniProt P00519, E255K); assay: as above
[8] = system: forty-four human cancer cell lines; assay: Cell proliferation assay (ATPlite, 72 hours) in the 44 cell line Oncolines panel; assay type: cell-based; settings: Homo sapiens
[9] = 4-4 cell, read-out: cell panel IC50, J82
[10] = 4-4 cell, read-out: cell panel IC50, PA-1
[11] = 4-4 cell, read-out: cell panel IC50, SJCRH30
[12] = 4-4 cell, read-out: cell panel IC50, SR
[13] = 769-P, read-out: cell panel IC50, 769-P
[14] = 786-0, read-out: cell panel IC50, 786-0
[15] = A 172, read-out: cell panel IC50, A-172
[16] = A204, read-out: cell panel IC50, A-204
[17] = A498, read-out: cell panel IC50, A-498
[18] = A549, read-out: cell panel IC50, A-549
[19] = A-375, read-out: cell panel IC50, A375
[20] = A-427, read-out: cell panel IC50, A-427
[21] = ACHN, read-out: cell panel IC50, ACHN
[22] = AN3-CA, read-out: cell panel IC50, AN3 CA
[23] = AU565, read-out: cell panel IC50, AU-565
[24] = BT-20, read-out: cell panel IC50, BT-20
[25] = BT-549, read-out: cell panel IC50, BT-549
[26] = BXPC-3, read-out: cell panel IC50, BxPC-3
[27] = C-33-A, read-out: cell panel IC50, C-33 A
[28] = CAL-27, read-out: cell panel IC50, CAL 27
[29] = CCRF-CEM, read-out: cell panel IC50, CCRF-CEM
[30] = DLD-1, read-out: cell panel IC50, DLD-1
[31] = FaDu, read-out: cell panel IC50, FaDu
[32] = HCT-15, read-out: cell panel IC50, HCT-15
[33] = HCT-116, read-out: cell panel IC50, HCT-116
[34] = Hs-578T, read-out: cell panel IC50, Hs 578T
[35] = Jurkat E6.1, read-out: cell panel IC50, Jurkat E6.1
[36] = K562, read-out: cell panel IC50, K-562
[37] = LS174T, read-out: cell panel IC50, LS 174T
[38] = LoVo, read-out: cell panel IC50, LoVo
[39] = MG-63, read-out: cell panel IC50, MG-63
[40] = MOLT-4, read-out: cell panel IC50, MOLT-4
[41] = MeWo, read-out: cell panel IC50, MeWo
[42] = NCI-H82, read-out: cell panel IC50, NCI-H82
[43] = NCI-H460, read-out: cell panel IC50, NCI-H460
[44] = OVCAR-3, read-out: cell panel IC50, OVCAR-3
[45] = RPMI-7951, read-out: cell panel IC50, RPMI-7951
[46] = SHP77, read-out: cell panel IC50, SHP-77
[47] = SK-N-AS, read-out: cell panel IC50, SK-N-AS
[48] = SW48, read-out: cell panel IC50, SW48
[49] = SW480, read-out: cell panel IC50, SW480
[50] = SW-620, read-out: cell panel IC50, SW620
[51] = U2OS, read-out: cell panel IC50, U-2 OS
[52] = U-87 MG, 72 h, read-out: IC50 in cell proliferation assay (table S5 cellpanel data)

With `COc1cc2nccc(Oc3ccc(NC(=O)C4(C(=O)Nc5ccc(F)cc5)CC4)cc3)c2cc1OC` [cabozantinib] as the molecule, how does the “%-inhibition, AXL” value [1] read?
Its value is 100%.

What about the “%-inhibition of NEK2” value [2] of the same molecule?
The value was -0.384%.

What about the “%-inhibition of FGFR1(V561M)” value [3] of the same molecule?
Its value is -2.45%.

And the “%-inhibition of EGFR(L858R)” value [4]?
Its value is 30%.

And the “%-inhibition of PAK6” value [5]?
Its value is -4%.

And the “%-inhibition of PKACβ” value ([6]; kinase PKACβ, 1 μM)?
The value was -4.25%.

What about the “%-inhibition, ABL(E255K)” value ([7]; kinase ABL(E255K), 1 μM compound) of the same molecule?
Its value is 25%.

And the pIC50 [8, 9]?
Its pIC50 is 4.64.

And the pIC50 [8, 10]?
Its pIC50 is 4.75.

What about the pIC50 [8, 11] of the same molecule?
The pIC50 was 4.82.

And the pIC50 [8, 12]?
The pIC50 was 4.61.

What about the pIC50 [8, 13] of the same molecule?
Its pIC50 is 4.52.

What about the pIC50 [8, 14] of the same molecule?
The pIC50 was 4.54.

What about the pIC50 [8, 15] of the same molecule?
Its pIC50 is 4.84.

And the pIC50 [8, 16]?
The pIC50 was 7.09.

What about the pIC50 [8, 17] of the same molecule?
Its pIC50 is 4.62.

What about the pIC50 [8, 18] of the same molecule?
Its pIC50 is 4.73.

And the pIC50 [8, 19]?
Its pIC50 is under 4.50.

What about the pIC50 [8, 20] of the same molecule?
The pIC50 was 4.85.

What about the pIC50 [8, 21] of the same molecule?
The pIC50 was 4.68.

What about the pIC50 [8, 22] of the same molecule?
Its pIC50 is 5.22.

And the pIC50 [8, 23]?
Its pIC50 is 4.70.

And the pIC50 [8, 24]?
The pIC50 was under 4.50.

And the pIC50 [8, 25]?
The pIC50 was 4.52.

What about the pIC50 [8, 26] of the same molecule?
Its pIC50 is 4.62.

And the pIC50 [8, 27]?
Its pIC50 is 4.71.

And the pIC50 [8, 28]?
Its pIC50 is 4.63.

And the pIC50 [8, 29]?
The pIC50 was 4.71.

And the pIC50 [8, 30]?
The pIC50 was 4.64.

And the pIC50 [8, 31]?
Its pIC50 is under 4.50.

What about the pIC50 [8, 32] of the same molecule?
Its pIC50 is 4.66.

And the pIC50 [8, 33]?
The pIC50 was 4.68.

What about the pIC50 [8, 34] of the same molecule?
The pIC50 was 4.62.

And the pIC50 [8, 35]?
The pIC50 was 4.94.

And the pIC50 [8, 36]?
Its pIC50 is 5.40.

What about the pIC50 [8, 37] of the same molecule?
Its pIC50 is under 4.50.

And the pIC50 [8, 38]?
Its pIC50 is 5.12.

And the pIC50 [8, 39]?
The pIC50 was 4.81.

And the pIC50 [8, 40]?
Its pIC50 is 4.92.

What about the pIC50 [8, 41] of the same molecule?
The pIC50 was 4.53.

And the pIC50 [8, 42]?
The pIC50 was 4.77.

What about the pIC50 [8, 43] of the same molecule?
Its pIC50 is 4.55.

What about the pIC50 [8, 44] of the same molecule?
The pIC50 was under 4.50.

And the pIC50 [8, 45]?
The pIC50 was 4.83.

And the pIC50 [8, 46]?
The pIC50 was under 4.50.

What about the pIC50 [8, 47] of the same molecule?
Its pIC50 is 4.51.

What about the pIC50 [8, 48] of the same molecule?
Its pIC50 is 4.90.

What about the pIC50 [8, 49] of the same molecule?
Its pIC50 is 4.79.

And the pIC50 [8, 50]?
The pIC50 was 5.21.

And the pIC50 [8, 51]?
Its pIC50 is 4.71.

What about the pIC50 [8, 52] of the same molecule?
The pIC50 was 4.65.

Which results are given for `N#CC[C@H](C1CCCC1)n1cc(-c2ncnc3[nH]ccc23)cn1` [ruxolitinib]?
%-inhibition, AXL [1]: 12%; %-inhibition of NEK2 [2]: -4%; %-inhibition of FGFR1(V561M) [3]: 50%; %-inhibition of EGFR(L858R) [4]: -4%; %-inhibition of PAK6 [5]: 3%; %-inhibition of PKACβ ([6]; 1 µM): 39%; %-inhibition, ABL(E255K) ([7]; 1 µM): 0.0579%; pIC50 [8, 9]: < 4.50; pIC50 [8, 10]: 4.57; pIC50 [8, 11]: 4.59; pIC50 [8, 12]: 5.35; pIC50 [8, 13]: 4.74; pIC50 [8, 14]: < 4.50; pIC50 [8, 15]: 4.50; pIC50 [8, 16]: < 4.50; pIC50 [8, 17]: < 4.50; pIC50 [8, 18]: 4.66; pIC50 [8, 19]: < 4.50; pIC50 [8, 20]: 4.93; pIC50 [8, 21]: < 4.50; pIC50 [8, 22]: 5.01; pIC50 [8, 23]: 4.55; pIC50 [8, 24]: < 4.50; pIC50 [8, 25]: < 4.50; pIC50 [8, 26]: 4.79; pIC50 [8, 27]: 5.03; pIC50 [8, 28]: < 4.50; pIC50 [8, 29]: 4.54; pIC50 [8, 30]: 4.51; pIC50 [8, 31]: < 4.50; pIC50 [8, 32]: 4.60; pIC50 [8, 33]: 4.52; pIC50 [8, 34]: < 4.50; pIC50 [8, 35]: 4.67; pIC50 [8, 36]: 4.58; pIC50 [8, 37]: 4.51; pIC50 [8, 38]: 4.61; pIC50 [8, 39]: 4.58; pIC50 [8, 40]: 4.66; pIC50 [8, 41]: < 4.50; pIC50 [8, 42]: 4.68; pIC50 [8, 43]: 4.57; pIC50 [8, 44]: < 4.50; pIC50 [8, 45]: 4.81; pIC50 [8, 46]: 4.51; pIC50 [8, 47]: 4.68; pIC50 [8, 48]: 4.71; pIC50 [8, 49]: < 4.50; pIC50 [8, 50]: 4.55; pIC50 [8, 51]: 4.60; pIC50 [8, 52]: < 4.50
